{"source": "patent US20060257463A1", "about": "“Transmucosal delivery of cannabinoids” (UNIVERSITY OF MISSISSIPPI, priority 2002, published 2006)", "key": {"[1]": {"test": "Drug recovery after hot-melt processing into transmucosal preparations", "format": "physicochemical", "conditions": "after processing the drug into TMP systems", "protocol": "The formulas are listed below. The PEO, PVP and Vitamin E TPGS were dry blended in a V-blender. The THC and the THC-HS were solubilized in the PEG 400 and immediately sprayed into the dry blend with continuous mixing. The resulting blend was then hot-melt extruded into films. The highest extrusion temperature was 150° C. and residence time in the barrel was approximately 2 minutes. The resulting transmucosal preparations were approximately 1.0 mm in thickness and both contained over 98% of the original theoretical percent of drug within the formulation.\nIt has been reported that THC is very unstable at room temperature and its primary degradant is cannabinol (CBN). It has also been reported that THC instability is accelerated by ultraviolet light and heat."}, "[2]": {"conditions": "Klucel matrix film, cited from earlier work"}, "[3]": {"test": "Solubility in polyethylene glycol 400", "conditions": "PEG 400"}, "[4]": {"test": "Diffusion study of transmucosal films in modified Franz cells", "conditions": "rabbit mucosa; Brij 3.0% buffer pH 7.2; FIG. 1", "description": "Diffusion studies of the transmucosal preparation films in Examples #5 and #6 were performed using a PermeGear, Model V9, 9 Cell System. Modified Franz cells were employed using thinly-excised rabbit mucosa as the diffusion membrane. Diffusion media was a diffusion buffer system of Brij® 3.0% (pH=7.2) which was determined by previous testing."}}, "note": "Where two headings read alike, the source gives them in different places."}
{"compound": "CCCCCc1cc(O)c2c(c1)OC(C)(C)[C@@H]1CCC(C)=C[C@@H]21", "note": "[THC, Tetrahydrocannabinol]", "values": [{"measurement": "THC recovered after processing into THC transmucosal matrix patch systems", "setting": "[1]", "result": "over 98%"}, {"measurement": "THC degradation within the hot-mold matrix", "setting": "[2]; processed at 120° C. for 20 minutes", "result": 1.8, "unit": "%"}, {"measurement": "THC degradation within the hot-mold matrix", "setting": "[2]; processed at 160° C. for 20 minutes", "result": 2.3, "unit": "%"}, {"measurement": "THC degradation within the hot-mold matrix", "setting": "[2]; processed at 200° C. for 20 minutes", "result": 4.3, "unit": "%"}, {"measurement": "solubility in polyethylene glycol 400", "setting": "[3]", "result": "> 20", "unit": "%"}]}
{"compound": "Tetrahydrocannabinol Hemisuccinate [THC-HS]", "values": [{"measurement": "duration of controlled diffusion", "setting": "[4]", "result": "over 22 hours"}, {"measurement": "release behaviour", "setting": "[4]", "result": "more immediate release"}]}
